According to patent US5247084A, “Derivatives of p-guanidinobenzoic acid” (priority 1985, dated 1993):
Structures can show the parent of a compound that is named as a salt. Where two headings read alike, the source gives them in different places.

Experiments:
[1] = acute toxicity test in mice by intravenous administration; settings: mouse, in vivo
[2] = target: T1, elastase from human neutrophil (Homo sapiens, UniProt P08246); experiment: Inhibitory effect on elastase (spectrophotometric method, substrate Suc-Ala-Pro-Ala-pNA); assay type: biochemical; settings: for inhibition at 50 µg/mL: at 50 μg/ml, read-out: Elastase Inhibitory Effect, Inhibition %
T1 construct: using elastase from human neutrophil; from tissue; host or cells: human neutrophil
T1 sequence (P08246 30-247 limits assumed): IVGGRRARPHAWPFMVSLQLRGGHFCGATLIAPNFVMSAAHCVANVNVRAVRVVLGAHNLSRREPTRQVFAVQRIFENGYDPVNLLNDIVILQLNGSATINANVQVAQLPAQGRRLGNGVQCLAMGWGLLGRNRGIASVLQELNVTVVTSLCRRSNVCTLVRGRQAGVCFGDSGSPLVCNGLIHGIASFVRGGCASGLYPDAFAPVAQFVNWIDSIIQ
Experimental: The test was carried out by the slight modification of the method of Bieth et al [see Biochem. Med., 75, 350 (1974)] using elastase from human neutrophil.
The reaction mixture consisted of 1 mM Suc-Ala-Pro-Ala-pNA (dissolving in N-methylpyrrolidone to the concentration of 100 mM, and then adding 1/100 amount of the solution to the reaction mixture.), 0.1 M buffer solution of tris-hydrochloric acid (pH 8.0), 0.2 M sodium chloride aqueous solution, the sample solution of various concentrations and enzyme solution in a final volume of 1.0 ml was incubated at 37° C. for 30 minutes.
The reaction was stopped by the addition of 100 μl of 50% acetic acid into the reaction mixture, and then p-nitro anilide released was measured on absorbance of 405 nm.
Inhibition percentage of the test compounds was caliculated by the following equation: [formula]

[3] = Y represents an oxygen atom, pH 8.0, 37° C., 30 minutes, read-out: Inhibitory Effect on Elastase, IC50
[4] = Y represents a sulfur atom, pH 8.0, 37° C., 30 minutes, read-out: Elastase Inhibitory Effect, IC50

Structure (SMILES) | IC50 [2, 3] [µM] | inhibition at 100 µM ([2]; Y represents an oxygen atom) [%] | other results
CCS(=O)(=O)Oc1cc(Cl)cc(SC(=O)c2ccc(NC(=N)N)cc2)c1 | – | – | LD50 [1]: 50 to 150 mg/kg
N=C(N)Nc1ccc(C(=O)Oc2cc(Cl)ccc2Cl)cc1 [Example 37] | 1.1 | 85.8 | LD50 [1]: 50 to 150 mg/kg
CCN(CC)S(=O)(=O)c1ccc(SC(=O)c2ccc(NC(=N)N)cc2)cc1Cl | – | – | LD50 [1]: 50 to 150 mg/kg
N=C(N)Nc1ccc(C(=O)Sc2ccccc2)cc1 [Example 124] | – | – | IC50 [2, 4]: 2.1 µM; inhibition at 50 µg/mL ([2]; Y represents a sulfur atom): 94%; LD50 [1]: 50 to 150 mg/kg
N=C(N)Nc1ccc(C(=O)Sc2cc(O)cc(Cl)c2)cc1 [3-chloro-5-hydroxy (Y = sulfur atom)] | – | – | LD50 [1]: 50 to 150 mg/kg
N=C(N)Nc1ccc(C(=O)Oc2cc(Cl)cc(COc3cccnc3)c2)cc1 [Example 121] | 1.1 | – | –
COc1cc(OC(=O)c2ccc(NC(=N)N)cc2)cc(C(=O)N2CCS(=O)(=O)C2)c1 [Example 122] | 12 | – | –
N=C(N)Nc1ccc(C(=O)Oc2cc(O)cc(C(=O)NCc3ccccc3)c2)cc1 [Example 115] | 88 | – | –
CN(C)C(=O)Oc1cc(Cl)cc(OC(=O)c2ccc(NC(=N)N)cc2)c1 [Example 87] | – | – | IC50 [2]: 0.76 µM
CCN(CC)S(=O)(=O)c1cccc(OC(=O)c2ccc(NC(=N)N)cc2)c1 [Example 92] | 35 | – | –
N=C(N)Nc1ccc(C(=O)Oc2cc(Cl)cc(C(=O)Nc3ccc(S(N)(=O)=O)cc3)c2)cc1 [Example 102] | 1.3 | – | –
N=C(N)Nc1ccc(C(=O)Sc2c(Cl)cccc2Cl)cc1 [Example 136] | – | – | IC50 [2, 4]: 45 µM; inhibition at 50 µg/mL ([2]; Y represents a sulfur atom): 64.5%
CCS(=O)(=O)Oc1cc(COC)cc(OC(=O)c2ccc(NC(=N)N)cc2)c1 [Example 11] | 60 | 66 | –
N=C(N)Nc1ccc(C(=O)Oc2cccc(OC(=O)c3ccccc3)c2)cc1 [Example 63] | 11 | 78.3 | –
CS(=O)(=O)Nc1ccc(Cl)c(OC(=O)c2ccc(NC(=N)N)cc2)c1 [Example 105] | 8.5 | – | –
COc1ccc(OC(=O)c2ccc(NC(=N)N)cc2)cc1 [Example 9] | – | 44.4 | –
CCN(CC)S(=O)(=O)c1ccccc1OC(=O)c1ccc(NC(=N)N)cc1 [Example 91] | 180 | – | –
COC(=O)c1cc(Cl)cc(OC(=O)c2ccc(NC(=N)N)cc2)c1 [Example 18] | 1.8 | – | –
N=C(N)Nc1ccc(C(=O)Oc2ccc(C(=O)c3ccccc3)cc2)cc1 [Example 55] | – | 33.3 | –
COc1cccc(SC(=O)c2ccc(NC(=N)N)cc2)c1 [Example 129] | – | – | IC50 [2, 4]: 6.4 µM; inhibition at 50 µg/mL ([2]; Y represents a sulfur atom): 89.2%
CCOC(=O)Cc1ccc(SC(=O)c2ccc(NC(=N)N)cc2)cc1 [Example 144] | – | – | inhibition at 50 µg/mL ([2]; Y represents a sulfur atom): 75.5%
N=C(N)Nc1ccc(C(=O)Sc2ccc(Cl)c(Cl)c2)cc1 [Example 137] | – | – | inhibition at 50 µg/mL ([2]; Y represents a sulfur atom): 35.5%
N=C(N)Nc1ccc(C(=O)Oc2cc(O)cc(OC(=O)c3ccc(NC(=N)N)cc3)c2)cc1 [Example 113] | – | 42 | –
N=C(N)Nc1ccc(C(=O)Sc2cccc(Cl)c2)cc1 [Example 133] | – | – | IC50 [2, 4]: 0.3 µM; inhibition at 50 µg/mL ([2]; Y represents a sulfur atom): 81.2%
N=C(N)Nc1ccc(C(=O)Oc2cc(OC(=O)c3ccc(NC(=N)N)cc3)cc(OC(=O)c3ccc(NC(=N)N)cc3)c2)cc1 [Example 65] | – | 38 | –
Cc1ccc(SC(=O)c2ccc(NC(=N)N)cc2)cc1 [Example 127] | – | – | inhibition at 50 µg/mL ([2]; Y represents a sulfur atom): 29.3%
N=C(N)Nc1ccc(C(=O)Oc2cccc(C(=O)c3ccccc3)c2)cc1 [Example 54] | 92 | – | –

Structure (SMILES) | IC50 [2, 3] [µM] | inhibition at 100 µM ([2]; Y represents an oxygen atom) [%] | other results
CN(C)S(=O)(=O)c1ccc(OC(=O)c2ccc(NC(=N)N)cc2)cc1Cl [Example 90] | 140 | – | –
CC(=O)c1cc(OC(=O)c2ccc(NC(=N)N)cc2)cc(OC(=O)c2ccc(NC(=N)N)cc2)c1 [Example 66] | 72 | – | –
N=C(N)Nc1ccc(C(=O)Sc2ccc(CC(=O)O)cc2)cc1 [Example 140] | – | – | inhibition at 50 µg/mL ([2]; Y represents a sulfur atom): 47.8%
CC(C)OC(=O)c1cccc(OC(=O)c2ccc(NC(=N)N)cc2)c1Cl [Example 21] | 2 | – | –
COc1cc(O)cc(OC(=O)c2ccc(NC(=N)N)cc2)c1 [Example 110] | 20 | – | –
CCNC(=O)c1cc(OC(=O)c2ccc(NC(=N)N)cc2)cc(C(=O)NCC)c1 [Example 83] | – | 28 | –
N=C(N)Nc1ccc(C(=O)Oc2cc(Cl)cc(COc3ccc(S(=O)(=O)N4CCOCC4)cc3)c2)cc1 [Example 151, P-guanidinobenzoic acid 3-chloro-5-(4-morpholinosulfonyl)phenoxymethylphenylester acetate] | 1.4 | – | –
CC(=O)Oc1cc(Cl)cc(OC(=O)c2ccc(NC(=N)N)cc2)c1 [Example 61] | 0.48 | – | –
N=C(N)Nc1ccc(C(=O)Oc2cc(Cl)cc(C(=O)N3CCS(=O)(=O)C3)c2)cc1 [Example 123] | 3.1 | – | –
COC(=O)c1ccc(OC(=O)c2ccc(NC(=N)N)cc2)cc1Cl [Example 16] | – | 42 | –
N=C(N)Nc1ccc(C(=O)Oc2cc(C(=O)O)cc(C(=O)O)c2)cc1 [Example 148] | – | 25 | –
Cc1cccc(SC(=O)c2ccc(NC(=N)N)cc2)c1 [Example 126] | – | – | IC50 [2, 4]: 5 µM; inhibition at 50 µg/mL ([2]; Y represents a sulfur atom): 89.7%
N=C(N)Nc1ccc(C(=O)Sc2ccccc2Cl)cc1 [Example 132] | – | – | IC50 [2, 4]: 1.8 µM; inhibition at 50 µg/mL ([2]; Y represents a sulfur atom): 93%
CC(C)OC(=O)c1cc(OC(=O)c2ccc(NC(=N)N)cc2)cc(C(=O)OC(C)C)c1 [Example 19] | – | 5.2 | –
N=C(N)Nc1ccc(C(=O)Oc2cc(Cl)cc(C(=O)Nc3cccnc3)c2)cc1 [Example 86] | 0.93 | – | –
Cc1cc(C)cc(OC(=O)c2ccc(NC(=N)N)cc2)c1 [Example 5] | – | 46.2 | –
CCCN(CCC)S(=O)(=O)c1ccc(OC(=O)c2ccc(NC(=N)N)cc2)cc1 [Example 97] | 58 | – | –
N=C(N)Nc1ccc(C(=O)Oc2ccc(S(=O)(=O)N3CCCC3)cc2)cc1 [Example 98] | 77 | – | –
N=C(N)Nc1ccc(C(=O)Oc2ccc(C(=O)c3ccccc3)cc2Cl)cc1 [Example 56] | 48 | 57.1 | –
CCCNC(=O)c1cc(OC(=O)c2ccc(NC(=N)N)cc2)cc(C(=O)NCCC)c1 [Example 84] | – | 36 | –
N=C(N)Nc1ccc(C(=O)Oc2cc(Cl)ccc2C(=O)CC2CCCC2)cc1 [Example 58] | 1.9 | – | –
N=C(N)Nc1ccc(C(=O)Sc2ccc(Cl)cc2)cc1 [Example 134] | – | – | inhibition at 50 µg/mL ([2]; Y represents a sulfur atom): 69.5%
N=C(N)Nc1ccc(C(=O)Oc2cc(Cl)cc(OS(=O)(=O)c3ccccc3)c2)cc1 [Example 77] | 0.8 | – | –
COCc1cc(OC(=O)c2ccc(NC(=N)N)cc2)cc(OC(=O)c2ccc(NC(=N)N)cc2)c1 [Example 13] | 9.1 | 89 | –
CS(=O)(=O)c1ccc(OC(=O)c2ccc(NC(=N)N)cc2)cc1 [Example 72] | > 100 | – | –
CCS(=O)(=O)Oc1cc(C)cc(OC(=O)c2ccc(NC(=N)N)cc2)c1 [Example 78] | 27 | – | –
CCC(=O)Oc1cc(Cl)cc(OC(=O)c2ccc(NC(=N)N)cc2)c1 [Example 62] | 0.38 | – | –

Second part, led by results:

IC50 [2, 3] [µM] | inhibition at 100 µM ([2]; Y represents an oxygen atom) [%] | Structure (SMILES) | other results
23 | 72.4 | N=C(N)Nc1ccc(C(=O)Oc2ccccc2C(F)(F)F)cc1 [Example 45] | –
0.4 | 97 | N=C(N)Nc1ccc(C(=O)Oc2cc(Cl)cc(Cl)c2)cc1 [Example 1, p-guanidinobenzoic acid 3,5-dichlorophenyl ester methanesulfonate] | –
6 | – | CNC(=O)c1cccc(OC(=O)c2ccc(NC(=N)N)cc2)c1Cl [Example 81] | –
2 | 89.9 | N=C(N)Nc1ccc(C(=O)Oc2c(Cl)cccc2Cl)cc1 [Example 38] | –
– | 23.1 | COc1ccccc1OC(=O)c1ccc(NC(=N)N)cc1 [Example 7] | –
65 | – | N=C(N)Nc1ccc(C(=O)Oc2cccc(S(N)(=O)=O)c2)cc1 [Example 89] | –
– | 25.7 | CC(=O)Oc1cccc(OC(=O)c2ccc(NC(=N)N)cc2)c1 [Example 59] | –
13 | – | COc1ccc(Cl)c(OC(=O)c2ccc(NC(=N)N)cc2)c1 [Example 41] | –
20 | – | N=C(N)Nc1ccc(C(=O)Oc2cccc(C(=O)O)c2Cl)cc1 [Example 147, P-guanidinobenzoic acid 3-carboxy-2-chlorophenylester hydrobromide] | –
– | 28.4 | Cc1ccc(OC(=O)c2ccc(NC(=N)N)cc2)cc1 [Example 4-methyl, reference compound] | –
6.5 | – | CC(C)C(=O)c1ccc(Cl)cc1OC(=O)c1ccc(NC(=N)N)cc1 [Example 53] | –
11 | 87 | N=C(N)Nc1ccc(C(=O)Oc2cccc([N+](=O)[O-])c2)cc1 [Example 107] | –
– | 39.6 | CCc1cccc(OC(=O)c2ccc(NC(=N)N)cc2)c1 [Example 6] | –
1.6 | – | CCC(=O)c1ccc(Cl)cc1OC(=O)c1ccc(NC(=N)N)cc1 [Example 52] | –
– | 4.1 | CC(=O)c1cccc(OC(=O)c2ccc(NC(=N)N)cc2)c1 [Example 48] | –
4 | 90.7 | COC(=O)c1cccc(OC(=O)c2ccc(NC(=N)N)cc2)c1Cl [Example 14] | –
3.7 | – | N=C(N)Nc1ccc(C(=O)Oc2cccc(F)c2F)cc1 [Example 32] | –
– | 11.2 | N=C(N)Nc1ccc(C(=O)Oc2ccc(I)cc2)cc1 [Example 44] | –
8 | 87.6 | N=C(N)Nc1ccc(C(=O)Oc2cccc(Cl)c2)cc1 [Example 35] | –
– | 5.9 | Cc1cccc(OC(=O)c2ccc(NC(=N)N)cc2)c1C [Example 4] | –
6 | 91.7 | N=C(N)Nc1ccc(C(=O)Oc2cccc(Br)c2)cc1 [Example 43] | –
